Data reported in patent publication US20240109853A1 (Shanghai Yao Yuan Biotechnology Co., Ltd., priority 2020, published 2024).

What was measured:
[1] = system: innate immunity gene expression in kidney; assay: Inhibition of activated ALPK1 in kidney: innate immunity gene expression after ALPK1 agonist; type: in vivo, Sprague-Dawley (SD) rats; settings: SD rats, 4, 10 or 25 mg/kg oral 2 hours prior to agonist ip, kidney 3 hours after agonist, RT-PCR
Method: FIG. 2: Treatment groups were administered 4, 10 or 25 mg/kg of the ALPK1 inhibitor A0176 2 hours prior to the agonist, D-glycero-D-manno-6-fluoro-heptose-1β-S-ADP.
To test the effects of the ALPK1 inhibitors on the expression of innate immunity genes activated upon ALPK1 activation, SD rats were orally administered ALPK1 inhibitors followed by activation of innate immunity genes by intraperitoneal administration of an ALPK1 agonist, D-glycero-D-manno-6-fluoro-heptose-1β-S-ADP. Kidney tissue was harvested and assayed for gene expression. Briefly, Twenty male Sprague-Dawley (SD) rats were randomly divided into five groups. The normal group was given vehicle (0.5% MC) orally. After 2 hours, PBS was given by ip injection. The control group was given vehicle (0.5% MC) orally. After 2 hours, D-glycero-D-manno-6-fluoro-heptose-1β-S-ADP (50 μpk) was given by ip injection. The other 3 groups were given the ALPK1 inhibitor A0176 (4, 10 and 25 mpk) orally. After 2 hours, D-glycero-D-manno-6-fluoro-heptose-1β-S-ADP (50 μpk) was given by ip injection. […] Quantitative PCR was conducted using AceQ qPCR SYBR Green Master Mix Kit (Vazyme, Nanjing, China) on the QuantStudio 5 applied biosystems (Thermo scientific, USA). The relative mRNA levels were calculated using the 2-ΔΔCT method, and HPRT was used as a reference for gene expression normalization. […]

[2] = system: polymicrobial sepsis induced by cecal ligation and puncture; assay: Sepsis induced acute kidney injury model (cecal ligation and puncture, CLP); settings: rat CLP, 20 mg/kg 2 hours prior to surgery
Method: Survival was recorded over the following 24 hours.
24 hours post-surgery, the kidneys were collected for gene expression analysis by Q-PCR.
24 hours post-surgery, plasma MCP-1 concentration was measured by ELISA.
We used a rat CLP model to evaluate the effects of compounds described here on sepsis. Briefly, the rat cecum was ligated with sterile silk thread, and then cecum was punctured twice with a needle, gently squeezed to express a small amount of fecal material, then the abdominal incision was closed. […] In addition, at 24 hours post-surgery, the kidneys were collected for gene expression analysis by Q-PCR and plasma was collected for measurement of plasma MCP-1 concentrations by ELISA.

**Q.** What does the source list for `C#C[C@@](C)(c1ccc(Cl)cc1)c1csc(NC(=O)NCCO)n1` [Example A0176]?
**A.** kidney gene expression of innate immunity genes (MCP-1 (CCL-2), CCL-7, CXCL-1, CXCL-10, IL-1p, IL-6 mRNA) [1]: dose-dependent inhibition of gene expression levels; kidney proinflammatory gene expression (IL6, TNFa, IL-1b, CCl2, KC) ([2]; kidneys 24 hours post-surgery, Q-PCR): decreased expression of kidney proinflammatory genes; plasma MCP-1 concentration ([2]; plasma 24 hours post-surgery, ELISA): improved the plasma MCP-1 levels; survival ([2]; survival over 24 hours): improved the animals' survival rate
